Results published in patent US20210386829A1, “COMPOSITIONS AND METHODS FOR MODULATING CGRP SIGNALING TO REGULATE INNATE LYMPHOID CELL INFLAMMATORY RESPONSES” (The Broad Institute, Inc., priority 2018, published 2021).
Entries after “also recorded” stand apart in the source; their conditions may differ.

Legend:
[1] = test system: lung ILCs; experiment: CellTrace Violet proliferation assay of sort-purified lung ILCs; type: cell-based, mouse; settings: 3 days
Experimental: (§1) ILC in vitro culture. For in vitro experiments 5,000 ILCs/well were cultured in a 96 well round bottom plate with 20 ng/ml IL-7 (R&D Systems), 200 ng/ml IL-25 (R&D Systems) or 20 ng/ml, 2 ng/ml or 0.2 ng/ml IL-33 (BioLegend) with or without 1 μg/ml Neuromedin U (US Biological). In some cases purified CD90.2^+ lung cells were first labeled with CellTrace Violet (Thermo Fisher Scientific), then sorted as described above, and cultured for 3 days under the indicated conditions.
Proliferation assay. Lung cells were isolated and enriched for CD90.2 cells as described above, followed by labeling with CellTrace Violet (Cat #C34557; Thermo Fisher Scientific) according to manufacturer's instructions and subsequently stained with antibodies. After 3-day culture of sort-purified ILCs with 20 ng/ml IL-7 either alone or in combination with 200 ng/ml IL-33, 100 pM CGRP or 100 nM CGRP followed by staining, expression of CellTrace Violet in live (7AAD−) ILCs was analyzed on a BD LSRFortessa (BD Biosciences).

[2] = test system: lung ILCs; experiment: culture of sort-purified lung ILCs with IL-7, IL-33 or IL-25+NMU with or without CGRP (qPCR, LegendPlex, intracellular cytokine staining); type: cell-based, mouse
Experimental: as §1
Quantitative real-time PCR. RNA was isolated using RNeasy Plus Mini Kit (Qiagen) and reverse transcribed to cDNA with iScript cDNA Synthesis Kit (Bio-Rad). Gene expression was analyzed by quantitative real-time PCR on a ViiA7 System (Thermo Fisher Scientific) using TaqMan Fast Advanced Master Mix (Thermo Fisher Scientific) with the following primer/probe sets: Il5 (Mm00439646_m1), Il13 (Mm00434204_m1), Il17rb (Mm00444709_m1), Nmur1 (Mm04207994_m1), Nmur2 (Mm00600704_m1), Nmu (Mm00479868_m1) and Actb (Applied Biosystems). Expression values were calculated relative to Actb detected in the same sample by duplex qPCR.
Cytokine quantification. Cytokine concentrations in BAL fluid, lung and supernatant of in vitro ILC cultures were analyzed by the LegendPlex Mouse Th Cytokine Panel (13-plex) (BioLegend) according to the manufacturer's instructions and analyzed on a FACS Calibur (BD Biosciences).
Culture of innate lymphoid cells. Sort-purified innate lymphoid cells (ILCs) were cultured under sterile conditions in complete medium in a humidified incubator at 37° C. and 10% CO2. ILCs were plated at a density of 3,000-5,000 ILCs per well in a 96 well round-bottom plate in cell culture medium with 20 ng/ml IL-7. Depending on the experiment, different combinations of 200 ng/ml IL-25, 200 ng/ml IL-33, 1 ug/ml NMU and 100 nM CGRP were added either at start or after overnight culture with 20 ng/ml IL-7. […]
For flow cytometric analysis, lung cells were transferred into a 96 well V-bottom plate and stained with surface antibodies for 20 min at 4° C. in the dark. Cells were washed twice with DPBS containing 2% fetal bovine serum and transferred into 1.2 ml tubes for analysis by flow cytometry. For intracellular cytokine staining, cells were incubated in complete cell culture medium with 50 ng/ml phorbol 12-myristate 13-acetate (Sigma-Aldrich), 1 uM ionomycin (Sigma-Aldrich) and GolgiStop (Cat #554724; BD Biosciences) in a humidified incubator at 37° C. and 10% CO2. After 5 hours, cells were transferred into 96 well V-bottom plate, stained with Fixable Viability Dye eFluor 506 (Cat #65-0866-14; Thermo Fisher) and surface antibodies for 20 min at 4° C. in the dark and washed twice with DPBS containing 2% fetal bovine serum. Then, cells were incubated with BD Cytofix/Cytoperm Buffer (Cat #51-2090KZ; BD Biosciences) for 20 min, followed by a wash with BD Perm/Wash Buffer (Cat #51-2091KZ; BD Biosciences). Subsequently, cells were incubated with antibodies targeting intracellular proteins diluted in BD Perm/Wash Buffer for 20 min and after two wash steps, transferred into 1.2 ml tubes for analysis by flow cytometry. For ki67 staining, cells were stained for surface antibodies as described above, fixed with a solution of Fixation/Permeabilization Concentrate (Cat #00-5123-43; Invitrogen) and Fixation/Perm Diluent (Cat #00-5223-56; Invitrogen) for 20 min, washed with Permeabilization Buffer (Cat #00-8333-56; Invitrogen). Then, cells were incubated with ki67 antibody diluted in Permeabilization Buffer for 20 min, washed and transferred into FACS tubes. Cells were analyzed on a BD LSRFortessa (BD Biosciences) flow cytometer with 5 lasers (355 nm, 405 nm, 488 nm, 561 nm and 640 nm). Data was analyzed using FlowJo v10.5.0 software and cell populations were gated as described previously (Wallrapp 2017).
RNA isolation and cDNA synthesis. […]

[3] = IL-7+CGRP vs IL-7 alone, 6 hours
[4] = IL-33+CGRP vs IL-33 alone, 6 hours
[5] = IL-33+CGRP vs IL-33 alone, 3 days
[6] = IL-33+CGRP vs IL-33 alone, 3 days culture

“CGRP: neuropeptide calcitonin gene-related peptide (encoded by Calca), ligand of the Ramp1/Calcrl receptor; given at 100 nM in vitro, 6.65 ug nasally” was tested, and the “IL-33-activated ILCs that proliferated” value ([1]; IL-7+IL-33 in the presence of 100 nM CGRP) was “less than 10%”, the “IL-33-induced proliferation of ILCs” value ([1]; IL-33 with 100 pM or 100 nM CGRP vs IL-33 alone) was “inhibits IL-33-induced proliferation in a dose-dependent manner; also recorded: strongly inhibited” and the “Il5 expression in ILC2s (qPCR)” value [2, 3] was “upregulated”. For the same substance, the “Il13 expression in ILC2s (qPCR)” value [2, 3] was “downregulated”, the “amphiregulin (Areg) expression in ILC2s (qPCR)” value [2, 3] was “trend of increased expression” and the “type 2 cytokine (IL-5, IL-13) production at mRNA and protein level in ILCs” value ([2]; IL-25+NMU+CGRP vs IL-25+NMU, 3 days) was “significantly reduced”. The “Areg expression in ILC2s (qPCR)” value [2, 4] was “significantly increased”, the “Il5 expression in ILC2s (qPCR)” value [2, 4] was “significantly increased” and the “Il13 expression in ILC2s (qPCR)” value [2, 4] was “significantly decreased”. For the same substance, the “IL-13 produced per cell (MFI)” value [2, 5] was “less”, the “amount of IL-5 expressed per cell (MFI)” value [2, 5] was “significant decreases” and the “frequency of IL-5-producing ILCs (flow cytometry)” value [2, 5] was “significant decreases”. The “frequency of IL-13+ ILCs (flow cytometry)” value [2, 5] was “lower”, the “Areg expression in ILCs (qPCR)” value [2, 6] was “increased” and the “IL-5 production at RNA and protein level in ILCs” value [2, 6] was “reduces; also recorded: significantly reduced”. The “IL-13 production at RNA and protein level in ILCs” value [2, 6] was “reduces; also recorded: significantly reduced; also recorded: remains repressed”, the “IL-5 protein production (intracellular cytokine staining)” value ([2]; short-term (8 hours) CGRP+IL33 vs IL-33 alone) was “induced” and the “frequency of IL-13-positive ILC2s (intracellular cytokine staining)” value ([2]; short-term (8 hours) treatment with CGRP+IL33) was 2%.
